Experiments:
[1] = system: normal lung epithelial cells (AT-1); assay type: cell-based, human; conditions: 1 mM and 2 mM, 48h, trypan blue
Method: The cells were treated with compounds and incubated for 48h.

[2] = system: human peripheral blood monocytes; test: IL-10 production in human peripheral blood monocytes; assay type: cell-based; conditions: after 48 h
[3] = target: T1, TLR2 (Homo sapiens, UniProt O60603); test: TLR2 activity in PMA-stimulated THP-1 monocyte cells, ELISA of cell lysate; assay type: cell-based; conditions: THP-1 cells
T1 construct: endogenous in cells; host or cells: THP-1 monocyte cells stimulated with PMA
Method: THP-1 monocyte cells (1×10^5) were stimulated with 200nM of PMA for 48h and treated with different concentrations of test compounds. The TLR2 activity was measured after 24 h from the cell lysate using ELISA.

[4] = system: hPBMC; test: Cytotoxicity in hPBMC, MTT cell proliferation kit; assay type: cell-based, human; conditions: 0.1, 1.0, 10, 100 and 1000 µM, 24h
Method: The cells were treated with compounds and incubated for 24h. Cell viability was assessed using MTT cell proliferation kit (Promega).

[5] = target: TLR4 (Homo sapiens, UniProt O00206); test: TLR4 inhibitory and activating activity in THP-1 cells at low and high concentrations; assay type: cell-based; design: endogenous in cells; host or cells: THP-1 (human monocytic) cells
[6] = system: HUVECs; test: Cytotoxicity in HUVECs, MTT cell proliferation kit; assay type: cell-based, human; conditions: 100 µM, 24h
Method: Selected TLR2/4 antagonist compounds 2, 6, 7, 8, 14, 17 and 32 were evaluated for cytotoxicity in HUVECs at 100 µM concentration. The cells were treated with compounds and incubated for 24h. Cell viability was assessed using MTT cell proliferation kit (Promega). All the compounds were not toxic to HUVECs (FIG. 15).

[7] = system: THP-1 (human monocytic) cells; test: Cytokine response (IL-1β, TNF-α, IL-10) of THP-1 cells treated with compounds; assay type: cell-based; conditions: 100-200 µM
Method: When THP-1 (human monocytic) cells were treated with 100-200 µM of compounds 8, 14, 17, 23, 29, and 32, they produced an increased IL-1β and TNF-α response, decreased anti-inflammatory cytokine IL-10 (FIG. 4).

[8] = system: hyperoxia induced BPD in mouse pups; test: Hyperoxia-exposed BPD mouse model (newborn pups); assay type: in vivo
Source text: Neonatal mice and humans undergo similar stages of lung development but differ with respect to the duration of each stage and its temporal relationship to gestational age. The lungs of the mouse born at term are in the saccular stage and are surfactant sufficient; this can be considered somewhat akin to a human preterm neonate in the same stage of lung development that has been exposed to a full complement of antenatal steroids (which is known to enhance surfactant production). In terms of mimicking the human condition, the most successful hyperoxia models are those that limit exposure to hyperoxia to the saccular stage of pulmonary development. The mouse BPD model involves exposing newborn mice (postnatal day 1 or PN1) to 100% oxygen till PN4 followed by recovery in room air (RA) for another 10 days.
After the recovery period, their lungs were harvested and processed for quantitative PCR, western blotting, histopathology and ELISA.
After the recovery period, their lungs were harvested and processed for quantitative PCR, western blotting and histopathology and ELISA.
BPD is characterized by large simplified alveoli, inflammation, increased cell death, decreased cell proliferation, dysmorphic capillary configuration, and variable interstitial cellularity and/or fibroproliferation. […] This is determined by measuring the alveolar chord length, septal thickness and radial alveolar count (RAC). In BPD, the alveolar area increases which is characterized by increase in the diameter of the alveolar sacs, the septa become thickened (thus interfering in gaseous exchange) and the RAC, a parameter used to assess the complexity of terminal respiratory unit by pulmonologists, decreases as a result of arrested lung development.

[9] = system: VEGF induced tube formation in HUVECs; test: Anti-angiogenic activity, Tube Formation kit, VEGF induced; assay type: cell-based, human; conditions: VEGF 100ng/mL
Method: Selected TLR2/4 antagonist compounds 2, 6, 7, 8, 14, 17 and 32 were evaluated for anti-angiogenic activity using the Tube Formation kit (Cat#3470-096-K). VEGF (100ng/mL) was used as positive control. These compounds have potential applications in diseases associated with pathological angiogenesis such as solid tumor, […], diabetic retinopathy as well as AMD.

[10] = Concentration 75-100 µM, THP-1 cells

T1 sequence (O60603 21-784): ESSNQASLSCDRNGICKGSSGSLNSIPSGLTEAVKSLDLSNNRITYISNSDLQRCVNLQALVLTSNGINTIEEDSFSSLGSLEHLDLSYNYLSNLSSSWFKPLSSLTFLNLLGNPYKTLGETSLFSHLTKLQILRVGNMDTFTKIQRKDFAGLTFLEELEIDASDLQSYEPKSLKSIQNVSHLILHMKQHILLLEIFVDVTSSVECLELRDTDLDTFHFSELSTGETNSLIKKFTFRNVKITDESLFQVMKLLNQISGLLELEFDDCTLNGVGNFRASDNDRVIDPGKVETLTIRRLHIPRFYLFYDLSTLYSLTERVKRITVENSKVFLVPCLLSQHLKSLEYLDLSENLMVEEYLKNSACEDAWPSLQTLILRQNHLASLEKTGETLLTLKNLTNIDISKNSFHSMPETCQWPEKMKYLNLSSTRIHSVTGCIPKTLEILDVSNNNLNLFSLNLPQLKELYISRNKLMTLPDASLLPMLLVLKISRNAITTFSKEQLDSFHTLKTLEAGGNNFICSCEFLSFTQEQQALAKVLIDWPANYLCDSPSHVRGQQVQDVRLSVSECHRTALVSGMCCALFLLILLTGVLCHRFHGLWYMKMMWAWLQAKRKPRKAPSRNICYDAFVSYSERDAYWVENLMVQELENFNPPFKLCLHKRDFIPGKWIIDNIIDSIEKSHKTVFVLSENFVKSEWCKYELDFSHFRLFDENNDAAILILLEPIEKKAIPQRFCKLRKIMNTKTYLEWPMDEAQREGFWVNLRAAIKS
Sequence of TLR4 (O00206 24-839): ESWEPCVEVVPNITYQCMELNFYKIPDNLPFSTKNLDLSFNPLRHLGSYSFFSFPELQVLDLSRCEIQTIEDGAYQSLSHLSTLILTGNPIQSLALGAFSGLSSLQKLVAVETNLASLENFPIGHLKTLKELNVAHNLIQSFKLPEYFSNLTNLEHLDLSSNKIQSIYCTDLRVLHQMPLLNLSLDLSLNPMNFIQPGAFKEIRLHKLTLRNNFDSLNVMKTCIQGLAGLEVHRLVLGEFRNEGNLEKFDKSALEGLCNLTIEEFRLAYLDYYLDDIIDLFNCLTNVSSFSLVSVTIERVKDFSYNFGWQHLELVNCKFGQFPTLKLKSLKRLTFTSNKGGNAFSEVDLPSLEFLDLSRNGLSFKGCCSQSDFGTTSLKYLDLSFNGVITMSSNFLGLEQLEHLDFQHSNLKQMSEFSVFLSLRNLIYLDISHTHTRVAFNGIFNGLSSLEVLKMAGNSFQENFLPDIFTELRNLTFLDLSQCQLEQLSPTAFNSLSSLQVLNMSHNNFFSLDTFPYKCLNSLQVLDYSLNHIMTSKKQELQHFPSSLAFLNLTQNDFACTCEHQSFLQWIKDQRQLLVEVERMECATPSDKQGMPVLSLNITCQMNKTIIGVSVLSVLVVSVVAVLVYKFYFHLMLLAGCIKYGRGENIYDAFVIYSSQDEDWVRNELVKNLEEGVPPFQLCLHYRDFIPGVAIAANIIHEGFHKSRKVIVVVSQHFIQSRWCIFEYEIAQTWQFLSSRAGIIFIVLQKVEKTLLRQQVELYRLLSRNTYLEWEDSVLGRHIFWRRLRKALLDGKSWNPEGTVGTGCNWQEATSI
Sequence of TLR4 (Q9Y6Y9 17-160 partner limits assumed): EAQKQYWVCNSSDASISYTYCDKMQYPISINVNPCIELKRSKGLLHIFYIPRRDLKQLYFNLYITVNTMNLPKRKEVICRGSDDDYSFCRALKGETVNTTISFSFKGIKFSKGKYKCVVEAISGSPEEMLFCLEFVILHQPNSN

TLR2/4 antagonist activity ([5]; summary in words, as shown in Table-1 (FIG. 1), TLR2 and TLR4)	SMILES	cytotoxicity in normal lung epithelial cells (AT-1) [1]	IL-10 production ([2]; 0.1-1.0 µM)	IL-10 production ([2]; 10-100 µM)	% inhibition over control TLR2 ([3]; Concentration 1-10 µM)	% inhibition over control TLR2 ([3]; Concentration 75-100 µM)	cytotoxicity in hPBMC (cell viability) [4]	% inhibition over control TLR4 ([5]; Concentration 1-10 µM, THP-1 cells)	% inhibition over control TLR4 [5, 10]	TLR4 modulatory activity ([5]; summary in words)	cytotoxicity in HUVECs (cell viability) [6]	IL-1β response [7]	TNF-α response [7]	anti-inflammatory cytokine IL-10 [7]	TLR4 inhibition in vivo ([8]; neonatal pups with BPD)	lung architecture ([8]; saline (IV) and nanosuspension (IN) formulation)	VEGF induced tube formation [9]	% activation over control TLR2 ([3]; Concentration 1-10 µM)	% activation over control TLR2 ([3]; Concentration 75-100 µM)	% activation over control TLR4 [5, 10]
–	CC(=O)O[C@H]1C(=O)[C@@]2(C)[C@H]([C@H](OC(=O)c3ccccc3)[C@]3(O)C[C@H](OC(=O)[C@H](O)[C@@H](NC(=O)c4ccccc4)c4ccccc4)C(C)=C1C3(C)C)[C@]1(OC(C)=O)CO[C@@H]1C[C@@H]2O [Taxol, reference compound]	toxic	–	–	–	–	–	–	–	–	–	–	–	–	–	–	–	–	–	–
potent TLR2/4 antagonists	CC(=O)NC1[C@H](Oc2ccc(B3OC(C)(C)C(C)(C)O3)cc2)O[C@H](CO)[C@@H](O)[C@@H]1O (single isomer, unassigned) [Compound 32, p-Pinacoloneboronatephenyl 2-acetamido-2-deoxy-β-D-glucopyranoside]	–	increase	decrease	+++ (+++ means that the % of inhibition or activation is in the range of 75-95%)	+ (+ means that the % of inhibition or activation is in the range of 15-25%)	not toxic	+++ (+++ means that the % of inhibition or activation is in the range of 75-95%)	+++ (+++ means that the % of inhibition or activation is in the range of 75-95%)	concentration dependent TLR4 modulatory activity	not toxic	increased	increased	decreased	inhibit	restored	significantly decreased	–	–	–
–	CC(=O)NC1[C@H](Oc2ccc3c(C)cc(=O)oc3c2)O[C@H](CO)[C@@H](O)[C@@H]1O (single isomer, unassigned) [Compound 29]	not toxic	–	–	–	–	–	–	–	–	–	increased	increased	decreased	–	–	–	++ (++ means that the % of inhibition or activation is in the range of 25-75%)	+ (+ means that the % of inhibition or activation is in the range of 15-25%)	+ (+ means that the % of inhibition or activation is in the range of 15-25%)

Reference: EP3820512B1, “IMMUNOMODULATING COMPOSITIONS COMPRISING OLIGOSACCHARIDE DERIVATIVES” (priority 2018, dated 2020)
